One assay concerns A431 cell. The assay is described as follows: Cell Proliferation Inhibition EGFR Assay (SRB method). The class given is cell-based, homo sapient. To be noted: Homo sapiens, read-out: IC50 (A431). An excerpt:
The following in vitro assay may be used to determine the level of activity and effect of different compounds of the present invention on the proliferation inhibition (cell toxic) of […] growth factor receptor (EGFR) high expressing homo […] cancer cell-A431 cell. The cellular assay described here measure the compounds of their anti-angiogenesis and proliferation inhibition activity and effect through EGFR on the cancer cells in vitro. The effect and activity is represented by the IC50 value that kills the cancer cell. […] The homo […] highly express EGFR are chosen and seeded to 96-well cell culture plate at a suitable concentration (exp 5000 cells/ml medium). The cells then are cultured in carbon dioxide (CO2) incubator till when they confluence to about 85%. Then, the cell culture medium is replaced by fresh one with tested compounds added in it at serial concentrations (general 6 to 7 concentrations). Then the cells are put back to the culture and cultured for continuous 72 hours. 72 hours later, the cell exposed to compounds and control cell are assayed for their proliferation using Sulforhodamine B (SRB) method. Compounds IC50 on tested cells are calculated by the data of inhibition rates of serial concentrations of the tested compounds. • a. Dimethyl sulfoxide (Sinophma chemical reagent company, catalog No. T20050806) • b. A431 cells (Purchased from Institute of biochemistry and cell biology) • c. Falcon 100 mm cell culture plates (Baton Dickison Labware, Baton Dickison and company, • Catalog No. 18677) • d. coming 96-well culture cluster (Corning Incorporated, Catalog No. 3599) • e. Fisher Pipette (Fisher scientific, Catalog No. 03-692-164) • f. DMEM/F12 cell medium (Gibco, Catalog No. 12400-024) • g. Fetal bovine serum, origin from Australia (Gibco, Catalog No. 10099-141) • h. […] Sulforhodamine B (Sigma, Catalog No. 3520-42-1) • k. Acetic Acid (Sinophma chemical reagent company, Catalog No. T20060508) • l. Trichloroacetic Acid (Sinophma chemical reagent company, Catalog No. T20060305) • m. Tris base (Amresco, Catalog No. 0826) • n. Class II A/B3 Biological safety cabinet (ThermoForma Catalog No. HB0053 03) • o. Series II water jacketed CO2 incubator (ThermoForma Model: 3111) • p. Centrifuge (Fisher Scientific Marathon 8 k, Catalog No. 0027-02) • q. Novastar Plate reader (BMG Labtech, Catalog No. 700 0081) • r. Orbital Shaker (Qilinbeier, Catalog No. TS-1) Protocol: […] Growing seeded 96-well plates at 37° C., 5% CO2, till 85% confluence. • 4. Prepare compounds stock solution, using DMSO solve candidate compounds to a concentration of 20 mM. […] Use cell culture medium (in this case, DMEM/F12+10% FBS) to dilute the compounds solution prepared above. Each DMSO serial concentration compound solution is diluted by 20 times with culture medium by adding 5 μl DMSO compound solution to 95 μl culture medium, then mix well by vortex. This promise that the DMSO concentration at that the A431 cell will exposed to will not surpass 0.5%. • 6. […] Each well added 180 μl medium, then add 20 μl medium solution of tested compounds prepared at step 5 to each well. For control group cell, add 20 μl culture medium containing 0.5% pure DMSO. […] Each 96-well plate, we can test 3 compounds with a control cell group. • 7. Put the culture plates back to incubator, culture for 72 hours at 37° C., 5% CO2. • 8. 72 hours later, remove cultures from incubator into sterile work area. • 9. Prepare fixative (50% Trichloroacetic Acid-TCA) by adding reagent grade water to the TCA, fix the cells by gently layering […] of cold TCA solution on top of the growth medium. • 10. Incubate plates for 1 hour at 4° C. and then rinse with water several times to remove TCA, serum proteins, etc. Plates are air dried and stored until use. Bland background optical density is measured in wells incubated with growth medium without cells. • 11. Use 10% acetic acid solution to prepare 0.4% Sulforhodamine B solution. Add 50 μl sulforhodamine B solution to each well of 96-well plates. • 12. […]

Another assay addresses T1, EGFR kinase (Homo sapiens, UniProt P00533).
T1 construct: purchased Cell signaling technology #7908
The assay is described as follows: EGFR Kinase Assay. Type of assay: biochemical. As to conditions: 20 μM ATP, 25° C. 45 minutes. As to the method: EGFR kinase activity in vitro was measured as described below:
a. Wash Buffer (PBS-T Buffer): 1×PBS (137 mM NaCl, 2.7 mM KCl, 4.3 mM Na2HPO4, 1.4 mM KH2PO4, adjust the pH to 7.2) and 0.05% Tween-20.
b. 1% Bovine Serum Albumin (BSA, Calbiochem #136593) in PBS-T.
c. Stop Buffer: 50 mM EDTA, pH 8.0
d. DELFIA® Europium-labeled Anti-mouse IgG (PerkinElmer Life Sciences #AD0124)
e. DELFIA® Enhancement Solution (PerkinElmer Life Sciences #1244-105)
f. DELFIA® Streptavidin coated, 96-well, yellow plate (PerkinElmer Life Sciences #AAAND-0005)
g. EGFR kinase (supplied in 50 mM Tris-HCl (pH 8.0), 100 mM NaCl, 5 mM DTT, 15 mM reduced glutathione and 20% glycerol. Cell signaling technology #7908).
h. 10 mM ATP solution (Cell signaling technology #9804).
i. PTP1B (Tyr66) Biotinylated Peptide (Cell signaling technology #1325).
j. Phospho-Tyrosine Mouse mAb (P-Tyr-100) (Cell signaling technology #9411).
k. HTScan™ Tyrosine Kinase Buffer (4×)
(Cell signaling technology #9805).
l. 1.25 M DTT (1000×) (Cell signaling technology).
The following protocol was used:
1. Dilute test compound with DMSO to the desired final assay concentration.
2. Dilute 6 μM substrate peptide (Tyr66) 1:1 with dH2O, add 15 μl to every assay.
3. Immediately transfer EGFR enzyme from −80° C. to ice. Allow enzyme to thaw on ice.
4. Take 3 μg EGFR enzyme to the enzyme tube.
5. Add 10 μl of DTT (1.25 M) to 2.5 ml of 4×HTScan™ Tyrosine Kinase Buffer (240 mM HEPES pH 7.5, 20 mM MgCl2, 20 mM MnCl2, 12 μM Na3VO4) to make DTT/Kinase buffer.
6. Transfer 0.75 ml of DTT/Kinase buffer to each enzyme tube to make 4× reaction cocktail. Add 7.5 μl 4× reaction cocktail to every assay.
7. Add 4 μl ATP (10 mM) to 496 μl dH2O, take 7.5 μl for every assay.
Final Assay Conditions for a 30 μl Reaction
Incubate reaction tube at 25° C. for 45 minutes. 9. Add 30 μl/assay stop buffer (50 mM EDTA, pH 8.0) to stop the reaction. 10. Transfer 25 μl of each reaction and 75 μl dH2O/well to a 96-well streptavidin coated plate and incubate, with shaking at room temperature for 60 minutes. 11. Wash three times with 200 μl/well PBS-T buffer. Pat plate on paper towel to remove excess liquid. 12. Dilute primary antibody, Phospho-Tyrosine mAb (P-Tyr-100), 1:1000 in PBS-T buffer with 1% BSA. Add 100 μl diluted primary antibody to each well. 13. Incubate, with shaking at room temperature for 60 minutes. 14. Wash as described above in step 11. 15. Dilute Europium labeled anti-mouse IgG 1:500 in PBS-T buffer with 1% BSA. Add 100 μl diluted antibody to each well. 16. Incubate, with shaking at room temperature for 30 minutes. 17. Wash five times with 200 μl/well PBS-T buffer. Pat plate on paper towel to remove excess liquid. 18. Add 100 μl/well DELFIA® Enhancement Solution. 19. Incubate, with shaking at room temperature for 5 minutes. 20. Detect 615 nm fluorescence emission with appropriate Time-Resolved Plate Reader.
Calculate the inhibition rate: IR (%)=100−100*(X−B)/(N−B)
X=the fluorescence value of the well contained test compound
The IC50 value can be derived from the IRs of compounds at different concentration gradients.

The structures appear in SMILES notation. Like-named read-outs stand apart in the source and are kept apart here.

T1 sequence (P00533 25-1210): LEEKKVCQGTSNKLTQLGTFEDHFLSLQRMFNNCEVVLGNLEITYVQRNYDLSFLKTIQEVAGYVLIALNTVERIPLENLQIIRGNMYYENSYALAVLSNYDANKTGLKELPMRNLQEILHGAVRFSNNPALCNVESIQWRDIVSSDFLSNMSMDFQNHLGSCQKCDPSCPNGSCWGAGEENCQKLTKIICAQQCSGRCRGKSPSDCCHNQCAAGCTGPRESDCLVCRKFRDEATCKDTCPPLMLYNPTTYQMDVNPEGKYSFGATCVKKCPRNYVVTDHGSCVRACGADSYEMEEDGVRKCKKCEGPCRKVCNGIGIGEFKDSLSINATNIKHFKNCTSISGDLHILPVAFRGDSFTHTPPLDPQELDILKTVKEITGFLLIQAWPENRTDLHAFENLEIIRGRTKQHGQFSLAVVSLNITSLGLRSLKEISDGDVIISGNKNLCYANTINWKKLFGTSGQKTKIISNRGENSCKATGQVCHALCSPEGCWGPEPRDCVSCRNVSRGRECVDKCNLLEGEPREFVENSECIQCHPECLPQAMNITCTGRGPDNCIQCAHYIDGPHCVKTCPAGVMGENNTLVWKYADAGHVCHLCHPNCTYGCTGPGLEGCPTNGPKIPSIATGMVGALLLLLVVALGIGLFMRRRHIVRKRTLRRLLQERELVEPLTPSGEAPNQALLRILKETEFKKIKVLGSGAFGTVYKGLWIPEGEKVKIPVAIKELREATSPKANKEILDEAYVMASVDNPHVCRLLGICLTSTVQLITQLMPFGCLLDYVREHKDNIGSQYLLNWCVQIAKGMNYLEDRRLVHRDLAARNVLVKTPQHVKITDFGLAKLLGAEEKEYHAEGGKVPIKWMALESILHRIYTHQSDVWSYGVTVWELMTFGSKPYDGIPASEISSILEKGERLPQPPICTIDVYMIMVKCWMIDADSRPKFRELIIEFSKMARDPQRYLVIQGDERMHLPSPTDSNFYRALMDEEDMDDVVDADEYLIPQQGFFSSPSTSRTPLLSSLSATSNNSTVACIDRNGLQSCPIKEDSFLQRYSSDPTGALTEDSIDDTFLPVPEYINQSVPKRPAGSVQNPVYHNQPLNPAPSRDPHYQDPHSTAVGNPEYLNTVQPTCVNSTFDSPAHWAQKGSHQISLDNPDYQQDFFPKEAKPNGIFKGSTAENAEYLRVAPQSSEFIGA

With `CCN(CC)CCN1CCc2[nH]c(/C=C3\C(=O)Nc4ccc(F)cc43)c(C)c2C1=O` [Example 1, 5-(2-Diethylamino-ethyl)-2-(5-fluoro-2-oxo-1,2-dihydro-indol-3-ylidenemethyl)-3-methyl-1,5,6,7-tetrahydro-pyrrolo[3,2-c]pyridin-4-one], the IC50 in the assay on A431 cell (A-431, 72 h) was found to be 1090 nM; on EGFR kinase, 280 nM.

`CCN(CC)CCN1CCc2[nH]c(/C=C3\C(=O)Nc4ccc(Cl)cc43)c(C)c2C1=O` [Example 2, 2-(5-Chloro-2-oxo-1,2-dihydro-indol-3-ylidenemethyl)-5-(2-diethylamino-ethyl)-3-methyl-1,5,6,7-tetrahydro-pyrrolo[3,2-c]pyridin-4-one]: the IC50 in the assay with A431 cell (A-431, 72 h) amounted to 1040 nM; against EGFR kinase, 290 nM.

In the case of `CCN(CC)CCN1CCc2[nH]c(/C=C3\C(=O)Nc4ccc(Br)cc43)c(C)c2C1=O` [Example 3, 2-(5-Bromo-2-oxo-1,2-dihydro-indol-3-ylidenemethyl)-5-(2-diethylamino-ethyl)-3-methyl-1,5,6,7-tetrahydro-pyrrolo[3,2-c]pyridin-4-one], the IC50 with A431 cell (A-431, 72 h) worked out at 1260 nM; at EGFR kinase, 490 nM.

Turning to `Cc1c(/C=C2\C(=O)Nc3ccc(F)cc32)[nH]c2c1C(=O)N(CCN1CCCC1)CC2` [Example 13, 2-(5-Fluoro-2-oxo-1,2-dihydro-indol-3-ylidenemethyl)-3-methyl-5-(2-pyrrolidin-1-yl-ethyl)-1,5,6,7-tetrahydro-pyrrolo[3,2-c]pyridin-4-one], the IC50 in the assay on A431 cell (A-431, A431 cells, 72 hours exposure, Sulforhodamine B) was found to be 1310 nM; at EGFR kinase it was 190 nM.

As a reminder, the IC50 is the concentration at which inhibition is half-maximal.

Source of the values: US8697692B2, “Pyrrolo [3,2-c] pyridine-4-one 2-indolinone protein kinase inhibitors” (Shanghai Hengrui Pharmaceutical Co., Ltd., priority 2006, dated 2014).
